Entries after “also recorded” stand apart in the source; their conditions may differ.

The subject of assay [1] is RA chip (HUVECs, RA patient derived FLS, RA patient monocyte-derived macrophage). Kind of assay: cytokine secretion profile of the RA chip with versus without TNF-α priming. Format: cell-based, human. From the text: To study blood and synovial cells from RA patients to understand the biological basis for response/non-response to TNFi, disclosed herein is a microfluidics-based 3D vascularized organ-on-a-chip model of RA. The disclosed microphysiological system integrates key features that replicate in vivo synovial architecture and monitors dynamic interactions between the critical cell types of RA, such as monocyte, monocyte-derived macrophage, and fibroblast-like synoviocytes (FLS), in real time with live-cell imaging. The RA chip is compartmentalized into three functional regions, which are partitioned by regularly spaced trapezoid micropillars that confine cell-embedded hydrogels, by balancing surface tension and capillary forces, to mimic the native in vivo tissue architecture of synovitis. The different tissue regions are a central sinus that is lined with human umbilical vein endothelial cells (HUVECs), a synovial sublining, which contains vessels extending from the central sinus, and a synovial lining region (outer ring) connected with four medium reservoirs for medium supply. HUVECs and RA patient derived FLS, and RA patient monocyte-derived macrophage are infused into different regions sequentially and cultured for 7 days to establish a microvessel network and a layered structure of synovium.
With this established synovium structure on-chip, first profiled is the cytokine environment of the engineered RA chip at two conditions (with TNF-α priming versus without) to validate the inflammation status of the RA chip.
Following the established inflammation in the RA chip, work pivoted to whether the RA inflammation can be maintained on-chip for a long period. The RA chip cultured for over 4 days and quantified inflammatory cytokines secretion with IL-6 and GM-CSF as indicator. […] It was previously shown that pre-treatment circulating type I IFN (T1IFN) activity predicts non-response to TNFi (Wampler-Muskardin et al., Front Immunol, 2020). Remarkably, no patient with a ratio >1.3 achieved remission or low disease activity. […]

The test system of assay [2] is monocytes in the RA chip. Kind of assay: monocyte migration in the RA chip, live imaging microscopy. In kind it is cell-based, human. The settings on record: RA chip primed with TNF-α versus not primed. The text has this:
Following the established inflammation in the RA chip, work pivoted to whether the RA inflammation can be maintained on-chip for a long period. The RA chip cultured for over 4 days and quantified inflammatory cytokines secretion with IL-6 and GM-CSF as indicator. […] It was previously shown that pre-treatment circulating type I IFN (T1IFN) activity predicts non-response to TNFi (Wampler-Muskardin et al., Front Immunol, 2020). Remarkably, no patient with a ratio >1.3 achieved remission or low disease activity. It is also possible to use single cell gene expression analysis to study blood monocytes in RA patients with high vs. low IFN-β-to-α activity ratio. […] Further on, the behaviors of monocytes in the RA chip are investigated by infusing monocytes into the central sinus of the chip, from which monocytes can distribute into the microvessel network and extravasate out of vessel. […] In addition, the effect of circulating T1IFNs on monocyte activation in the RA chip was studied.
The biomimetic Synovium-on-a-Chip (FIG. 4A) contains two areas to mimic the outer layer (lining layer) and an inner layer (sublining layer) of the synovium. […]
To confirm the role of TNF-α in regulating the RA inflammation, monitored first is monocyte dynamics in the RA device which is primed with or without TNF-α. […]

As to TNF-α, in assay [1] (RA chip cultured for over 4 days after transient TNF-α treatment), the “secretion of IL-6 and GM-CSF” value is “generally decreased”. Moreover, the “secretion of cytokines (IL-6, GM-CSF, IL-8, MCP-1, MCP-3, MIP-3α)” value in assay [1] (RA chip with TNF-α priming versus without) is listed as “increased secretion”. Further, the “inflammatory environment of the RA chip” value in assay [1] (primed with TNF-α at an interval of 2-3 days) was “maintained over 7 days”. In addition, in assay [2], the “monocyte migration dynamics (migration velocity and distance)” value is “promoted monocyte migration dynamics; also recorded: Enhanced migration behaviors”.
